Tested on: 287954-098-R-J1 tumor spheroid viability
Assay: Anticancer human tumor 287954-098-R-J1 patient-derived Ewing sarcoma cell line growth inhibition
Details: spheroids with HUVEC and MSC; for IC50: curve of first compound; for viability, T/C: stronger effect = lower value
In short: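 Complex spheroids of malignant cells with endothelial cells and mesenchymal stem cells; agents alone or combined, from near clinical Cmax (or 10 microM if unknown) down in half-log steps, 0.25% DMSO final.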
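Note: spheroids exposed to compound for 7 days before viability readout.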
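Throughout, for viability, T/C: luminescent signal taken as surrogate of viable cell content; 100% = DMSO vehicle control viability and lower means growth inhibition.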

O=C(c1cc(Cc2n[nH]c(=O)c3ccccc23)ccc1F)N1CCN(C(=O)C2CC2)CC1 + CC[C@@]1(O)C(=O)OCc2c1cc1n(c2=O)Cc2cc3c(CN(C)C)c(O)ccc3nc2-1
IC50 (second compound 0.003 µM): 5.24 µM
IC50 (second compound 0.00949 µM): 3.84 µM
IC50 (second compound 0.03 µM): < 0.0949 µM
IC50 (second compound 0.0949 µM): < 0.0949 µM
IC50 (second compound 0.3 µM): < 0.0949 µM
viability, T/C (second compound 0.003 µM, first compound 0.0949 µM): 93.7%
viability, T/C (second compound 0.003 µM, first compound 0.3 µM): 96.7%
viability, T/C (second compound 0.003 µM, first compound 0.949 µM): 96.2%
viability, T/C (second compound 0.003 µM, first compound 3 µM): 93.9%
viability, T/C (second compound 0.003 µM, first compound 9.49 µM): 3.33%
viability, T/C (second compound 0.003 µM, first compound 30 µM): 1.93%
viability, T/C (second compound 0.00949 µM, first compound 0.0949 µM): 92.9%
viability, T/C (second compound 0.00949 µM, first compound 0.3 µM): 95.3%
viability, T/C (second compound 0.00949 µM, first compound 0.949 µM): 82.9%
viability, T/C (second compound 0.00949 µM, first compound 3 µM): 63.2%
viability, T/C (second compound 0.00949 µM, first compound 9.49 µM): 1.84%
viability, T/C (second compound 0.00949 µM, first compound 30 µM): 1.78%
viability, T/C (second compound 0.03 µM, first compound 0.0949 µM): 2.21%
viability, T/C (second compound 0.03 µM, first compound 0.3 µM): 2.14%
viability, T/C (second compound 0.03 µM, first compound 0.949 µM): 2.31%
viability, T/C (second compound 0.03 µM, first compound 3 µM): 2.28%
viability, T/C (second compound 0.03 µM, first compound 9.49 µM): 1.82%
viability, T/C (second compound 0.03 µM, first compound 30 µM): 1.46%
viability, T/C (second compound 0.0949 µM, first compound 0.0949 µM): 2.17%
viability, T/C (second compound 0.0949 µM, first compound 0.3 µM): 1.78%
viability, T/C (second compound 0.0949 µM, first compound 0.949 µM): 1.87%
viability, T/C (second compound 0.0949 µM, first compound 3 µM): 1.93%
viability, T/C (second compound 0.0949 µM, first compound 9.49 µM): 1.76%
viability, T/C (second compound 0.0949 µM, first compound 30 µM): 1.56%
viability, T/C (second compound 0.3 µM, first compound 0.0949 µM): 1.94%
viability, T/C (second compound 0.3 µM, first compound 0.3 µM): 1.89%
viability, T/C (second compound 0.3 µM, first compound 0.949 µM): 1.84%
viability, T/C (second compound 0.3 µM, first compound 3 µM): 1.71%
viability, T/C (second compound 0.3 µM, first compound 9.49 µM): 1.55%
viability, T/C (second compound 0.3 µM, first compound 30 µM): 1.28%
